Our source for the TGI and GI50 values is PubChem BioAssay (NCI).

Assay in all cases: DTP human tumour cell line panel, 48 h
The test system of assay [1] is A498 renal.
Assay [2] deals with HCC-2998 colon.
For assay [3], the system named is HOP-62 NSCLC.
The test system of assay [4] is HOP-92 NSCLC.
In assay [5] the test system is KM12 colon.
The test system of assay [6] is MDA-MB-231 breast.
The subject of assay [7] is PC-3 prostate.
Assay [8] relates to SF-295 CNS.
Assay [9] relates to SK-MEL-2 melanoma.
The test system of assay [10] is SR leukemia.

Where “and” joins values, the source holds several entries; their conditions need not be identical. Identical values can stand only once.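 Growth conditions: 96-well plates. Treatment: test compound, 48 hours, 5 concentrations. Analysis: linear interpolation between bracketing concentrations; unreached endpoints set to highest concentration. GI50 is the concentration that inhibits growth by half. TGI marks complete inhibition of growth.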 Bounds are passed on as bounds.

On to `CC(=O)OC1CC2(O)C3CCC4CC(O)CCC4(C)C3CCC2(C)C1C1=CC(=O)OC1` (stereo not given), for which the TGI in [1] turned out to be 0.392 µM; in assay [2], 0.39 µM; in assay [3] it was 0.178 µM; in [4], 19.3 µM; in assay [5], 1.87 µM; in assay [6] it was 6.61 µM. The TGI in assay [7] was 0.373 µM; in assay [8], 0.222 µM; in [9], 0.505 µM; in assay [10] it was 0.131 µM.

Turning to `C=CCC1(O)c2cccc(NCCO)c2C(=O)c2c(NCCO)cccc21`, the GI50 in assay [1] is > 100 µM; in [2], > 100 µM; in assay [3], > 100 µM; in assay [4], 80.7 µM; in [5] it was > 100 µM; in [6], > 100 µM. The GI50 in assay [7], in assay [8], in [9] and in [10] was > 100 µM each time. In addition, the TGI in [1], in assay [2], in [3], in assay [4], in [5] and in [6] was > 100 µM in each case. The TGI in [7], in assay [8], in [9] and in assay [10] was > 100 µM each time.

Turning to `Cc1cc(Nc2ncnc3ccc(NC4=NC(C)(C)CO4)cc23)ccc1Oc1ccn2ncnc2c1`, the GI50 was 4.1 µM and > 10 µM in assay [1]; 16.5 µM and > 10 µM in assay [2]; 17.6 µM and > 10 µM in assay [3]; 3.69 µM and 4.24 µM in [4]; 15.6 µM and > 10 µM in assay [5]; 14.1 µM and > 10 µM in assay [6]. The GI50 in assay [7] is 15.7 µM and > 10 µM; in assay [8], 14.9 µM and > 10 µM; in assay [9], 20.1 µM and > 10 µM; in assay [10], 14.7 µM and > 10 µM. The TGI was 24.8 µM and > 10 µM in [1]; 30.9 µM and > 10 µM in assay [2]; 45.7 µM and > 10 µM in assay [3]; 26.9 µM and > 10 µM in [4]; 32.1 µM and > 10 µM in [5]; 44.9 µM and > 10 µM in [6]. Further, the TGI was 66.6 µM and > 10 µM in assay [7]; 38.3 µM and > 10 µM in assay [8]; 46.4 µM and > 10 µM in [9]; 43.8 µM and > 10 µM in [10].

As usually defined, the TGI is the concentration giving total growth inhibition. High values mean lower sensitivity of the cells, low ones greater sensitivity of the cells. In general, GI50 refers to the concentration that inhibits growth by half.
